From publication PMC9158366, “The inhibition of tamoxifen on UGT2B gene expression and enzyme activity in rat liver contribute to the estrogen homeostasis dysregulation” (BMC Pharmacology & Toxicology, 2022)

Biological target: T1, UGT2B7 (Homo sapiens, UniProt P16662)
T1 sequence (P16662 24-529): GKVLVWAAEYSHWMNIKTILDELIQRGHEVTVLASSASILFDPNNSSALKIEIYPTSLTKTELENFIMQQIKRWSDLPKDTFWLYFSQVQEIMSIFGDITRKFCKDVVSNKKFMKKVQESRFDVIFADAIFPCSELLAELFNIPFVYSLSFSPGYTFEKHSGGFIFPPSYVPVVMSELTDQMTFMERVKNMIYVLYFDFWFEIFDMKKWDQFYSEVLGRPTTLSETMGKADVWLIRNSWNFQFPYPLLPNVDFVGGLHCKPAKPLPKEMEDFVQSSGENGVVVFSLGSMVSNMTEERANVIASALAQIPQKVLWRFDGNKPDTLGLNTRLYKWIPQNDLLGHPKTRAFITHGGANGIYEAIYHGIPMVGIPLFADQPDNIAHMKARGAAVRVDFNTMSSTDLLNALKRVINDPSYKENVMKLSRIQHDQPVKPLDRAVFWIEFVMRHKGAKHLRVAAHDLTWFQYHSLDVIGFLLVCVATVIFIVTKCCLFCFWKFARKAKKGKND
Test: inhibition of naloxone glucuronidation in human liver microsomes, HPLC
Format: biochemical

Question: With `CC/C(=C(\c1ccccc1)c1ccc(OCCN(C)C)cc1)c1ccccc1` [tamoxifen] as the compound, how does the Ki read?
Answer: 37.7 µM
